These results are taken from BindingDB's records for doi:10.1021/jm990412m (University of Queensland, 2000).

The assay in a line: Binding affinity against Protease.

Residues, ends and D or L forms follow the SMILES beside them.

Turning to `CSCC[C@H](NC(=O)[C@H](CCC(=O)O)NC(=O)[C@H](CC(=O)O)NC(C)=O)C(=O)N[C@@H](CCC(=O)O)C(=O)N[C@@H](CCC(=O)O)C(=O)N[C@@H](CS)C(=O)O` [AcAsp-Glu-Met-Glu-Glu-Cys] (Ac-DEMEEC-OH), the affinity corresponds to a Ki of 0.6 µM.
